According to patent US20250213575A1, “8-HETEROCYCLIC-3-(PHENYLSULFONYL)-[1,2,3]TRIAZOLO[1,5A]QUINAZOLIN-5(4H)-ONE DERIVATIVES AS ANTI-BACTERIALS” (priority 2022, published 2025):

Target: AgrA (Staphylococcus aureus, UniProt P0A0I7)
Assay: cell-based
Design: species or system S. aureus USA300 strain UAMS-1625
Conditions: for Ratio IC50 (in presence of HSA)/IC50 (in absence of HSA): 40 mg/mL HSA vs without HSA
[1] = IC50 at 40 mg/mL HSA, LB medium supplemented with 40 mg/mL human serum albumin
[2] = IC50 without HSA, LB medium, without HSA

AgrA, sequence (P0A0I7 whole entry): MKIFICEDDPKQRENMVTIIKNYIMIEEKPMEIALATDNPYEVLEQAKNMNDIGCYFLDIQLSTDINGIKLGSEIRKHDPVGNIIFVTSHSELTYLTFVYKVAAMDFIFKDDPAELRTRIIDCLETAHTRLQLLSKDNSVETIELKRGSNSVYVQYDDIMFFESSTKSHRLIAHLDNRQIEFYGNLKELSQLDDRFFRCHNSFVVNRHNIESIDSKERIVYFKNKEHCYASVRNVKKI

Cc1ccc(S(=O)(=O)c2nnn3c2[nH]c(=O)c2ccc(N4CCN(C)C(=O)C4)cc23)c(C)c1 [Compound 53, 4-[3-(2,4-dimethylbenzenesulfonyl)-5-oxo-4H,5H-[1,2,3]triazolo[1,5-a]quinazolin-8-yl]-1-methylpiperazin-2-one]
Ratio IC50 (in presence of HSA)/IC50 (in absence of HSA): ++ (ratio ≤ 125)
IC50 [1]: 21.4 to 107 µM
IC50 [2]: < 2.14 µM

CNC1CCN(c2ccc3c(=O)[nH]c4c(S(=O)(=O)c5ccc(C)cc5C)nnn4c3c2)C1 (centres unmarked) [Compound 34, 3-(2,4-dimethylbenzenesulfonyl)-8-[3-(methylamino)pyrrolidin-1-yl]-4H,5H-[1,2,3]triazolo[1,5-a]quinazolin-5-one]
Ratio IC50 (in presence of HSA)/IC50 (in absence of HSA): ++ (ratio ≤ 125)
IC50 [1]: 22.1 to 110 µM
IC50 [2]: < 2.21 µM

Cc1ccc(S(=O)(=O)c2nnn3c2[nH]c(=O)c2ccc(N4CC(C)N(C)C(C)C4)cc23)c(C)c1 (centres unmarked) [Compound 27, 3-(2,4-dimethylbenzenesulfonyl)-8-(3,4,5-trimethylpiperazin-1-yl)-4H,5H-[1,2,3]triazolo[1,5-a]quinazolin-5-one]
Ratio IC50 (in presence of HSA)/IC50 (in absence of HSA): +++ (ratio ≤ 25)
IC50 [1]: 20.8 to 104 µM
IC50 [2]: < 2.08 µM

Cc1ccc(S(=O)(=O)c2nnn3c2[nH]c(=O)c2ccc(N4CCC45CN(C)C5)cc23)c(C)c1 [Compound 11, 3-(2,4-dimethylbenzenesulfonyl)-8-{6-methyl-1,6-diazaspiro[3.3]heptan-1-yl}-4H,5H-[1,2,3]triazolo[1,5-a]quinazolin-5-one]
Ratio IC50 (in presence of HSA)/IC50 (in absence of HSA): +++ (ratio ≤ 25)
IC50 [1]: 21.5 to 108 µM
IC50 [2]: 2.15 to 10.8 µM

Cc1ccc(S(=O)(=O)c2nnn3c2[nH]c(=O)c2ccc(N4CCn5ccnc5C4)cc23)c(C)c1 [Compound 54, 3-(2,4-dimethylbenzenesulfonyl)-8-{5H,6H,7H,8H-imidazo[1,2-a]pyrazin-7-yl}-4H,5H-[1,2,3]triazolo[1,5-a]quinazolin-5-one]
Ratio IC50 (in presence of HSA)/IC50 (in absence of HSA): ++ (ratio ≤ 125)
IC50 [1]: 21 to 105 µM
IC50 [2]: 2.1 to 10.5 µM

Cc1ccc(S(=O)(=O)c2nnn3c2[nH]c(=O)c2ccc(N4CC5CCC(C4)N5)cc23)c(C)c1 [Compound 50]
IC50 [1]: < 21.5 µM
IC50 [2]: 2.15 to 10.8 µM

Cc1ccc(S(=O)(=O)c2nnn3c2[nH]c(=O)c2ccc(N4CCC(N)CC4)cc23)c(C)c1 [Compound 33, 8-(4-aminopiperidin-1-yl)-3-(2,4-dimethylbenzenesulfonyl)-4H,5H-[1,2,3]triazolo[1,5-a]quinazolin-5-one]
Ratio IC50 (in presence of HSA)/IC50 (in absence of HSA): +++ (ratio ≤ 25)
IC50 [1]: < 22.1 µM
IC50 [2]: < 2.21 µM

Cc1ccc(S(=O)(=O)c2nnn3c2[nH]c(=O)c2ccc(N4CCN(C)C(C)(C)C4)cc23)c(C)c1 [Compound 29, 3-(2,4-dimethylbenzenesulfonyl)-8-(3,3,4-trimethylpiperazin-1-yl)-4H,5H-[1,2,3]triazolo[1,5-a]quinazolin-5-one]
Ratio IC50 (in presence of HSA)/IC50 (in absence of HSA): ++ (ratio ≤ 125)
IC50 [1]: 20.8 to 104 µM
IC50 [2]: 2.08 to 10.4 µM

Cc1ccc(S(=O)(=O)c2nnn3c2[nH]c(=O)c2ccc(N4CCCNCC4)cc23)c(C)c1 [Compound 47, 8-(1,4-diazepan-1-yl)-3-(2,4-dimethylbenzenesulfonyl)-4H,5H-[1,2,3]triazolo[1,5-a]quinazolin-5-one]
Ratio IC50 (in presence of HSA)/IC50 (in absence of HSA): +++ (ratio ≤ 25)
IC50 [1]: < 22.1 µM
IC50 [2]: < 2.21 µM

Cc1ccc(S(=O)(=O)c2nnn3c2[nH]c(=O)c2ccc(N4C[C@H](C)NC[C@H]4C)cc23)c(C)c1 (racemic) [Compound 28, rac-3-(2,4-dimethylbenzenesulfonyl)-8-[(2R,5S)-2,5-dimethylpiperazin-1-yl]-4H,5H-[1,2,3]triazolo[1,5-a]quinazolin-5-one]
Ratio IC50 (in presence of HSA)/IC50 (in absence of HSA): +++ (ratio ≤ 25)
IC50 [1]: < 21.4 µM
IC50 [2]: < 2.14 µM

Cc1ccc(S(=O)(=O)c2nnn3c2[nH]c(=O)c2ccc(N4CCN(C5COC5)CC4)cc23)c(C)c1 [Compound 55, 3-(2,4-dimethylbenzenesulfonyl)-8-[4-(oxetan-3-yl)piperazin-1-yl]-4H,5H-[1,2,3]triazolo[1,5-a]quinazolin-5-one]
Ratio IC50 (in presence of HSA)/IC50 (in absence of HSA): ++ (ratio ≤ 125)
IC50 [1]: < 20.2 µM
IC50 [2]: < 2.02 µM

CNC1CCN(c2ccc3c(=O)[nH]c4c(S(=O)(=O)c5ccc(C)cc5C)nnn4c3c2)CC1 [Compound 31, 3-(2,4-dimethylbenzenesulfonyl)-8-[4-(methylamino)piperidin-1-yl]-4H,5H-[1,2,3]triazolo[1,5-a]quinazolin-5-one]
Ratio IC50 (in presence of HSA)/IC50 (in absence of HSA): +++ (ratio ≤ 25)
IC50 [1]: 21.4 to 107 µM
IC50 [2]: < 2.14 µM

Cc1ccc(S(=O)(=O)c2n[nH]n3c2nc(=O)c2ccc(N4CCOC5(CCNCC5)C4)cc23)c(C)c1 [Compound 17, 3-(2,4-dimethylbenzenesulfonyl)-8-{1-oxa-4,9-diazaspiro[5.5]undecan-4-yl}-1H,5H-[1,2,3]triazolo[1,5-a]quinazolin-5-one]
Ratio IC50 (in presence of HSA)/IC50 (in absence of HSA): +++ (ratio ≤ 25)
IC50 [1]: 19.7 to 98.3 µM
IC50 [2]: 1.97 to 9.83 µM

Cc1ccc(S(=O)(=O)c2n[nH]n3c2nc(=O)c2ccc(N4CCC5(CCNC[C@@H]5O)CC4)cc23)c(C)c1 [Compound 19, 3-(2,4-dimethylbenzenesulfonyl)-8-[(7R)-7-hydroxy-3,9-diazaspiro[5.5]undecan-3-yl]-1H,5H-[1,2,3]triazolo[1,5-a]quinazolin-5-one]
Ratio IC50 (in presence of HSA)/IC50 (in absence of HSA): +++ (ratio ≤ 25)
IC50 [1]: 19.1 to 95.7 µM
IC50 [2]: 1.91 to 9.57 µM

Cc1ccc(S(=O)(=O)c2nnn3c2[nH]c(=O)c2ccc(N4CCN5CCC[C@H]5C4)cc23)c(C)c1 [Compound 37, 8-[(8aS)-octahydropyrrolo[1,2-a]pyrazin-2-yl]-3-(2,4-dimethylbenzenesulfonyl)-4H,5H-[1,2,3]triazolo[1,5-a]quinazolin-5-one]
Ratio IC50 (in presence of HSA)/IC50 (in absence of HSA): +++ (ratio ≤ 25)
IC50 [1]: 20.9 to 104 µM
IC50 [2]: 2.09 to 10.4 µM

Cc1ccc(S(=O)(=O)c2nnn3c2[nH]c(=O)c2ccc(N4CCN(CCO)CC4)cc23)c(C)c1 [Compound 43, 3-(2,4-dimethylbenzenesulfonyl)-8-[4-(2-hydroxyethyl)piperazin-1-yl]-4H,5H-[1,2,3]triazolo[1,5-a]quinazolin-5-one]
Ratio IC50 (in presence of HSA)/IC50 (in absence of HSA): ++ (ratio ≤ 125)
IC50 [1]: 20.7 to 104 µM
IC50 [2]: < 2.07 µM

Cc1ccc(S(=O)(=O)c2nnn3c2[nH]c(=O)c2ccc(N4CC[C@@H](N)C4)cc23)c(C)c1 [Compound 35, 8-[(3R)-3-aminopyrrolidin-1-yl]-3-(2,4-dimethylbenzenesulfonyl)-4H,5H-[1,2,3]triazolo[1,5-a]quinazolin-5-one]
Ratio IC50 (in presence of HSA)/IC50 (in absence of HSA): +++ (ratio ≤ 25)
IC50 [1]: 22.8 to 114 µM
IC50 [2]: < 2.28 µM

Cc1ccc(S(=O)(=O)c2nnn3c2[nH]c(=O)c2ccc(N4CCN5CCOCC5C4)cc23)c(C)c1 (centres unmarked) [Compound 30, 3-(2,4-dimethylbenzenesulfonyl)-8-{octahydropyrazino[2,1-c][1,4]oxazin-8-yl}-4H,5H-[1,2,3]triazolo[1,5-a]quinazolin-5-one]
Ratio IC50 (in presence of HSA)/IC50 (in absence of HSA): +++ (ratio ≤ 25)
IC50 [1]: 20.2 to 101 µM
IC50 [2]: 2.02 to 10.1 µM

Cc1ccc(S(=O)(=O)c2nnn3c2[nH]c(=O)c2ccc(N4CCCN(CCO)CC4)cc23)c(C)c1 [Compound 46, 3-(2,4-dimethylbenzenesulfonyl)-8-[4-(2-hydroxyethyl)-1,4-diazepan-1-yl]-4H,5H-[1,2,3]triazolo[1,5-a]quinazolin-5-one]
Ratio IC50 (in presence of HSA)/IC50 (in absence of HSA): +++ (ratio ≤ 25)
IC50 [1]: 20.1 to 101 µM
IC50 [2]: < 2.01 µM

Cc1ccc(S(=O)(=O)c2nnn3c2[nH]c(=O)c2ccc(N4C[C@@H](C)N(C)[C@@H](C)C4)cc23)c(C)c1 [Compound 25, rac-3-(2,4-dimethylbenzenesulfonyl)-8-[(3R,5S)-3,4,5-trimethylpiperazin-1-yl]-4H,5H-[1,2,3]triazolo[1,5-a]quinazolin-5-one]
Ratio IC50 (in presence of HSA)/IC50 (in absence of HSA): +++ (ratio ≤ 25)
IC50 [1]: < 20.8 µM
IC50 [2]: < 2.08 µM

Cc1ccc(S(=O)(=O)c2nnn3c2[nH]c(=O)c2ccc(N4CC(C)NC(C)C4)cc23)c(C)c1 (centres unmarked) [Compound 26, 3-(2,4-dimethylbenzenesulfonyl)-8-(3,5-dimethylpiperazin-1-yl)-4H,5H-[1,2,3]triazolo[1,5-a]quinazolin-5-one]
Ratio IC50 (in presence of HSA)/IC50 (in absence of HSA): +++ (ratio ≤ 25)
IC50 [1]: 21.4 to 107 µM
IC50 [2]: 2.14 to 10.7 µM

Cc1ccc(S(=O)(=O)c2nnn3c2[nH]c(=O)c2ccc(N4CC5(COC5)C4)cc23)c(C)c1 [Compound 13, 3-(2,4-dimethylbenzenesulfonyl)-8-{2-oxa-6-azaspiro[3.3]heptan-6-yl}-4H,5H-[1,2,3]triazolo[1,5-a]quinazolin-5-one]
Ratio IC50 (in presence of HSA)/IC50 (in absence of HSA): ++ (ratio ≤ 125)
IC50 [1]: 22.1 to 111 µM
IC50 [2]: < 2.21 µM

Cc1ccc(S(=O)(=O)c2nnn3c2[nH]c(=O)c2ccc(N4CCC5C(CCN5C)C4)cc23)c(C)c1 (centres unmarked) [Compound 39, 3-(2,4-dimethylbenzenesulfonyl)-8-{1-methyl-octahydro-1H-pyrrolo[3,2-c]pyridin-5-yl}-4H,5H-[1,2,3]triazolo[1,5-a]quinazolin-5-one]
Ratio IC50 (in presence of HSA)/IC50 (in absence of HSA): +++ (ratio ≤ 25)
IC50 [1]: 20.3 to 102 µM
IC50 [2]: < 2.03 µM

Cc1ccc(S(=O)(=O)c2nnn3c2[nH]c(=O)c2ccc(N4CC5(CCN5C)C4)cc23)c(C)c1 [Compound 12, 3-(2,4-dimethylbenzenesulfonyl)-8-{1-methyl-1,6-diazaspiro[3.3]heptan-6-yl}-4H,5H-[1,2,3]triazolo[1,5-a]quinazolin-5-one]
Ratio IC50 (in presence of HSA)/IC50 (in absence of HSA): +++ (ratio ≤ 25)
IC50 [1]: 21.5 to 108 µM
IC50 [2]: < 2.15 µM

Cc1ccc(S(=O)(=O)c2nnn3c2[nH]c(=O)c2ccc(N4CC5(CC(C(=O)O)C5)C4)cc23)c(C)c1 [Compound 63, 2-[3-(2,4-Dimethyl-benzenesulfonyl)-5-oxo-4,5-dihydro-[1,2,3]triazolo[1,5-a]quinazolin-8-yl]-2-aza-spiro[3.3]heptane-6-carboxylic acid]
Ratio IC50 (in presence of HSA)/IC50 (in absence of HSA): +++ (ratio ≤ 25)
IC50 [1]: < 20.3 µM
IC50 [2]: < 2.03 µM
